# Measured values as given in PMC12654176 (Microorganisms, 2025).
# Tested on: H10NX AIVs NA activity
# Format: biochemical
smiles,measurement,setting,value
"CC(=O)N[C@H]1[C@H]([C@H](O)[C@H](O)CO)OC(C(=O)O)=C[C@@H]1N=C(N)N [Zanamivir, zanamivir]",susceptibility of H10NX isolates to the drug (phenotypic assay),,sensitive
same,IC50,"read-out: mean IC50 values, range over the H10NX isolates tested",0.7 to 1.3 nM
